Measured values from patent US7195787B1, “Skincare composition against free radicals” (The Boots Company PLC, priority 1999, dated 2007).

Test: lipid peroxidation assay: protection of linoleic acid from UV light
Type: biochemical
Settings: antioxidant at the printed concentration (1.50%, 0.10%, 0.10%, combination 1.70%)
Protocol: The following procedure tests the ability of antioxidants to protect lipids form the damaging effects of UV light. The antioxidants to be tested are morus alba (“Mulberry Concentrate” from Aston Chemicals), magnesium ascorbyl phosphate and panax ginseng (“Phytexcell Panax ginseng” from Croda Chemicals Ltd). The antioxidants were tested individually at a particular concentration and in combination. In the test the antioxidant or combination of antioxidants is mixed with a known skin lipid (linoleic acid) and irradiated using UV light. The quantity of peroxides in each sample is measured colourimetrically after irradiation to assess the level of damage caused by peroxidation of the linoleic acid.
A 1% lipid stock solution is prepared dissolving linoleic in an aqueous solution of octoxynol-9 (Triton X-100). Stock solutions in aqueous TBS buffer of the following antioxidants magnesium ascorbyl phosphate, morus alba and panax ginseng were prepared at 15%, 1.0% and 1.0% respectively. […]
Using a micropipette plate 7.5 μl of each sample is pipetted into 3 wells, i.e. in triplicate, and irradiated with UV light for 40 minutes. […] The reaction that occurs causes a colour change from colourless to blue which is measured colourimetrically at 675 nm. The more peroxides present the darker the blue colouration and the higher the observed absorbance.

Structure (SMILES): O=C1O[C@H]([C@@H](O)CO)C([O-])=C1OP(=O)([O-])[O-].O=C1O[C@H]([C@@H](O)CO)C([O-])=C1OP(=O)([O-])[O-].[Mg+2].[Mg+2].[Mg+2] [Magnesium ascorbyl phosphate, magnesium ascorbyl phosphate]
- Absorbance (675 nm, after 40 minutes UV, 0.5% linoleic acid): 0.84
- percentage of peroxidation observed when compared to that seen with the irradiated controls (40 minutes UV): >100%
